Reference: article PMC9780888, “4-Isobutylmethcathinone—A Novel Synthetic Cathinone with High In Vitro Cytotoxicity and Strong Receptor Binding Preference of Enantiomers” (Pharmaceuticals, 2022)
Structures can show the parent of a compound that is named as a salt.

Molecular target: T1, dopamine receptor DAR2 (Homo sapiens, UniProt P14416)
T1 construct: host or cells: HTLA (HEK 293-derived)
Assay: PRESTO-Tango β-arrestin 2 recruitment assay, DAR2
Assay type: cell-based
Conditions: for RLU value relative to control (transfected but untreated HTLA cells): DAR2, 500 nM
Description: However, binding to a specific receptor/transporter and, thus, the mechanism of action of a given cathinone always depends on the specific structure of the evaluated compound [37]. In this study, the binding activity of IBMcat and its enantiomers was verified by PRESTO-Tango (parallel receptor expression and screening via transcriptional output, with transcriptional activation following arrestin-2 translocation) assay using the HTLA cell line stably producing β-arrestin-2 in a fusion with TEV and luciferase production driven by tTA. For this purpose, the HTLA cells were transiently transfected with plasmid DNA encoding the dopamine receptors type 1-4 (DAR1-4), which also contain the TEV protease cleavage site followed by tTA at the 3’-end (DAR1-Tango, DAR2-Tango, DAR3-Tango, DAR4-Tango). In the case of the receptor activation by a ligand, in transfected cells, the receptor is desensitized by β-arrestin fused to TEV protease. This brings the TEV protease close to the site that specifically cleaves and, thus, the transcription factor can be cleaved. The transcription factor then translocates to the cell nucleus, in which it triggers the transcription of the target gene for luciferase production which can be determined by the light emitted from luciferin conversion to oxyluciferin. Here, the pronounced luminescence was recorded for all DAR1-4 types in HTLA cells treated with IBMCat and its enantiomers (Figure 8).
The HTLA cell line was used for the PRESTO-Tango β-arrestin recruitment assay. […]
The transfected HTLA cells were incubated for 24 h, and then 1 × 10^4 cells were seeded per well of a white 96-well clear bottom plate (Brand, Germany) in 40 μL of DMEM with 1% charcoal-stripped FBS (Thermo Fisher Scientific, USA). […] After 5 min., the luminescence was measured using a multi-mode microplate reader SpectraMax iD5 (Molecular Devices, San Jose, CA, USA) measuring the entire wavelength spectrum. All samples were measured in quadruplicates. The data were evaluated by Prism 7 software (GraphPad, San Jose, CA, USA).

T1 sequence (P14416 whole entry): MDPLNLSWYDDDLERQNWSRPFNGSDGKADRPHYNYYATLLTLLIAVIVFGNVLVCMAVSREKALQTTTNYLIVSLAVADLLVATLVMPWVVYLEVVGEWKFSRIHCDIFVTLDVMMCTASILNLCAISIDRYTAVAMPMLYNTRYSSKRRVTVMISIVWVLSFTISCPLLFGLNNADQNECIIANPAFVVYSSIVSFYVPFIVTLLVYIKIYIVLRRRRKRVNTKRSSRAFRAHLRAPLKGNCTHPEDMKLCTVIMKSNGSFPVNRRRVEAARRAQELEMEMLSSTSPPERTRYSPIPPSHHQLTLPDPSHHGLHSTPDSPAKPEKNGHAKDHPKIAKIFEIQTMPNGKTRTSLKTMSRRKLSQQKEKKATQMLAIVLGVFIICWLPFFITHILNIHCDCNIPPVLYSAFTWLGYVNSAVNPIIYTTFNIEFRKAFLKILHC

SMILES	RLU value relative to control (transfected but untreated HTLA cells)	effect on DAR2-expressing cells (0-500 nM)
CNC(C)C(=O)c1ccc(CC(C)C)cc1.Cl (stereo not drawn) [IBMcat, 4-isobutylmethcathinone hydrochloride]	approximately 5 fold	
CN[C@@H](C)C(=O)c1ccc(CC(C)C)cc1 [S-IBMCat, (S)-4-isobutylmethcathinone hydrochloride]	~3 fold	
CN[C@H](C)C(=O)c1ccc(CC(C)C)cc1 [R-IBMCat]		no effect
